# Experimental data published in publication PMC3409094 (Journal of medicinal chemistry, 2012).
# Key:
# [1] = target: three MDR protease variants (M1-M3); assay: HIV-1 protease inhibition assay; assay type: biochemical; conditions: against all three MDR protease variants (M1-M3)
# [2] = tested on: wild-type and drug-resistant HIV-1 strains; assay: Antiviral assays, all viruses tested summarised; assay type: cell-based
# [3] = against all the viruses tested (wild-type and MDR HIV-1)
SMILES,MDR Ki [1],"EC50 [2, 3]",EC50 ([2]; Human immunodeficiency virus 1) [nM]
"CC[C@H](C)CN(C[C@@H](O)[C@H](Cc1ccccc1)NC(=O)OCCNC(=O)C(Cl)Cl)S(=O)(=O)c1ccc(OC)cc1 [13c, 2-(2,2-dichloroacetamido)ethyl (2S,3R)-3-hydroxy-4-(4-methoxy-N-((S)-2-methylbutyl)phenylsulfonamido)-1-phenylbutan-2-ylcarbamate]",excellent potencies in the low nM ranges,,
"CC[C@H](C)CN(C[C@@H](O)[C@H](Cc1ccccc1)NC(=O)OC[C@@H](C)C(=O)OC)S(=O)(=O)c1ccc(OC)cc1 [13f, (R)-methyl 3-((((2S,3R)-3-hydroxy-4-(4-methoxy-N-((S)-2-methylbutyl)phenylsulfonamido)-1-phenylbutan-2-yl)carbamoyl)oxy)-2-methylpropanoate]",excellent potencies in the low nM ranges,modest antiviral potency,
"CC[C@H](C)CN(C[C@@H](O)[C@H](Cc1ccccc1)NC(=O)OC[C@@H]1CCC(=O)N1)S(=O)(=O)c1ccc(OC)cc1 [13j, ((S)-5-oxopyrrolidin-2-yl)methyl ((2S,3R)-3-hydroxy-4-(4-methoxy-N-((S)-2-methylbutyl)phenylsulfonamido)-1-phenylbutan-2-yl)carbamate]",excellent potencies in the low nM ranges,modest antiviral potency,
"CC[C@H](C)CN(C[C@@H](O)[C@H](Cc1ccccc1)NC(=O)OCCN1CCNC1=O)S(=O)(=O)c1ccc2ncsc2c1 [14g, 2-(2-oxoimidazolidin-1-yl)ethyl ((2S,3R)-3-hydroxy-4-(N-((S)-2-methylbutyl)benzo[d]thiazole-6-sulfonamido)-1-phenylbutan-2-yl)carbamate]",,modest antiviral potency,
"CC[C@H](C)CN(C[C@@H](O)[C@H](Cc1ccccc1)NC(=O)OC[C@@H]1CCC(=O)N1)S(=O)(=O)c1ccc2ncsc2c1 [14j, ((S)-5-oxopyrrolidin-2-yl)methyl ((2S,3R)-3-hydroxy-4-(N-((S)-2-methylbutyl)benzo[d]thiazole-6-sulfonamido)-1-phenylbutan-2-yl)carbamate]",excellent potencies in the low nM ranges,,15.5 to 35.6
